Measured values published in patent US7378121B2, “Use of ferulic acid amides as flavor compounds” (Symrise GmbH & Co. KG, priority 2001, dated 2008).

Experiments:
[1] = in vivo; cited from earlier work
[2] = Sensory assessment of the pungency of liqueur base model system A (10% by volume) with additions; assay type: in vivo, human; conditions: 1% by weight of solution (1% by weight in EtOH) added to model system A
Experimental: (§1) The grains of paradise extract used below was prepared by stirring 800 g of ground grains of paradise with 4 kg of ethanol (96% by volume). After filtration the filtrate was concentrated to 40 g and treated with steam at 100° C. and 300 mbar. The extract was made up to 80 g with ethanol (96% by volume).
(§2) As commercially conventional model systems, a liqueur base of 10% by volume and a liqueur base of 5.5% by volume were selected.
To the model system A were then added the solution of the extract of grains of paradise (1% by weight in ethanol (EtOH)) at concentrations of 1 to 3% by weight, based on the total weight of the model system, and a solution of trans-feruloylmethoxytyramine (1% by weight in ethanol) at a concentration of 1% by weight, based on the total weight of the model system. Using a taste-testing group of 8 people, the effect of grains of paradise extract addition and trans-feruloylmethoxytyramine addition on the sensory profile were then tested. The sensory assessment was made on a scale of 1 (weak) to 5 (strong).

[3] = Test of the combined action of grains of paradise extract and trans-feruloylmethoxytyramine in model system A; assay type: in vivo, human; conditions: 0.02% by weight solution (10% by weight EtOH) in model system A
Experimental: as §1, §2
Then, to model system A the solution of a grains of paradise extract (10% by weight in ethanol) was added at concentrations of 0.1 to 0.2% by weight, based on the total weight of the model system, and a solution of trans-feruloylmethoxytyramine (10% by weight in ethanol) at a concentration of 0.01 to 0.02% by weight, based on the total weight of the model system. Using a taste-testing group of 8 people, again the effect of grains of paradise extract addition and of trans-feruloylmethoxytyramine addition on the sensory profile were tested. In addition, the combined action was tested.

[4] = Tasting of the pungent compounds in 11% strength by weight sugar solution (Example 1); assay type: in vivo, human; conditions: approx. 5 ml swallowed, 8 testers
Experimental: The substance, under test, was dissolved in ethanol and the ethanolic solution was then diluted with an 11% strength by weight sugar solution (final concentration: c). For tasting, in each case approximately 5 ml of the sugar solution was swallowed. If the threshold value of the substance was known, a value just above the threshold value is chosen for the tasting. A group of 8 testers tasted the solutions.

[5] = Gelled fruits having elderberry flavor, flavor intensifier test; assay type: in vivo, human; conditions: elderberry flavor 0.07% by weight
Text: As commercially conventional model system, flavor combinations in gelled fruits having elderberry flavor were used: […]

[6] = system: mouse; conditions: cited from earlier work
[7] = with frequent use and overdose; cited from earlier work

## COc1cc(/C=C/C(=O)NCc2ccc(O)c(OC)c2)ccc1O [ferulic acid N-vanillylamide, N-(4-hydroxy-3-methoxybenzyl)-4-hydroxy-3-methoxy-(2E)-propenamide]
[1]
  Pungency as described in the literature: not described as pungent

## COc1cc(/C=C/C(=O)NCCc2ccc(O)c(OC)c2)ccc1O [trans-feruloylmethoxytyramine, N-[2-(4-hydroxy-3-methoxyphenyl)ethyl]-3-(4-hydroxy-3-methoxyphenyl)-(2E)-propenamide]
[2]
  Sensory description: Sweet, vanilla, fruity, less
[2]; scale 1 (weak) to 5 (strong), 8 people
  Pungency (median), Scale 1-5: 2
[3]
  Comments (sensory): Mild, pungency very similar
[4]; c=10 ppm in 11% sugar solution
  Sensory profile: body, sweet, heat develops after delay, long-lasting, especially in the pharyngeal cavity (in the case of 4 participants), adherent, slightly anaesthetizing action
[4]; c=20 ppm in 11% sugar solution
  Sensory profile: sweet, aniseed-like, benzaldehyde, heat develops after a delay (in the case of 8 participants), long-lasting, especially in the pharyngeal cavity, pleasant pepper pungency
[5]; 0.015% by weight of solution (1% by weight in ethanol)
  Sensory description: Effect only slightly perceptible
[5]; 0.03% by weight of solution (1% by weight in ethanol)
  Sensory description: Effect below threshold, but pleasant
[5]; 0.045% by weight of solution (1% by weight in ethanol)
  Sensory description: Flavor fresh and rounded

## O=C(/C=C/c1ccc(O)c(O)c1)NCCc1ccc(O)cc1 [trans-caffeoyltyramine, N-[2-(4-hydroxyphenyl)ethyl]-3-(3,4-dihydroxyphenyl)-(2E)-propenamide]
[4]; c=1 ppm in 11% sugar solution
  Sensory profile: pungency occurs after a delay, anaesthetizing pungency

## COc1ccc(/C=C/C(=O)NCCc2ccc(OC)c(OC)c2)cc1OC [trans-rubenamine, N-[2-(3,4-dimethoxyphenyl)ethyl]-3-(3,4-dimethoxyphenyl)-(2E)-propenamide]
[4]; c=1 ppm in 11% sugar solution
  Sensory profile: pleasant mild pungency, builds up slowly

## COc1cc(CNC(=O)CCCC/C=C/C(C)C)ccc1O [capsaicin, N-(4-hydroxy-3-methoxybenzyl)-8-methyl-(6E)-nonenamide]
[6]
  LD50 (mouse oral): 47 mg
[7]
  Chronic damage: chronic gastritis, kidney damage and liver damage

## COc1cc(/C=C\C(=O)NCCc2ccc(O)c(OC)c2)ccc1O [cis-feruloylmethoxytyramine, N-[2-(4-hydroxy-3-methoxyphenyl)ethyl]-3-(4-hydroxy-3-methoxyphenyl)-(2Z)-propenamide]
[4]; c=1 ppm in 11% sugar solution
  Sensory profile: pungency builds up slowly
